Experimental data from patent publication US8293769B2, “CSF-1R inhibitors, compositions, and methods of use” (Novartis AG, priority 2008, dated 2012).

Assays:
[1] = molecular target: T1, cytoplasmic domain of the human CSF-1R (Homo sapiens, UniProt P07333); assay: In vitro kinase assay for CSF-1R (AlphaScreen); assay type: biochemical; details: tested at about 1 μM; read-out: CSF1RK 1 percent inhibition
T1 construct: Recombinant protein corresponding to the cytoplasmic domain of the human CSF-1R; purchased Invitrogen Corporation, Carlsbad, Calif; PV3249
T1 sequence (P07333 539-972 limits assumed): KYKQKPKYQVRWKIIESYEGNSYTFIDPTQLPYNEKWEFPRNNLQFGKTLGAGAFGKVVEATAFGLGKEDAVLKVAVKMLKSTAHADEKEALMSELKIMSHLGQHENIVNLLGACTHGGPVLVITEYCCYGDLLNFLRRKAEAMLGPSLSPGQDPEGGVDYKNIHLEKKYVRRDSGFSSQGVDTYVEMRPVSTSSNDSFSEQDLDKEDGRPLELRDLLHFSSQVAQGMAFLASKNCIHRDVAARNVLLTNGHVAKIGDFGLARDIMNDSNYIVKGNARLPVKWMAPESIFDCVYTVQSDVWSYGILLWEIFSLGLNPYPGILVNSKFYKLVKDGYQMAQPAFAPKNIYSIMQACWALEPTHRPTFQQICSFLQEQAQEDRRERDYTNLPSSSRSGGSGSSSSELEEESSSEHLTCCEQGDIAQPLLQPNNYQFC
Procedure: The kinase activity of various protein tyrosine kinases can be measured by providing ATP and a suitable peptide or protein tyrosine-containing substrate, and assaying the transfer of phosphate moiety to the tyrosine residue. Recombinant protein corresponding to the cytoplasmic domain of the human CSF-1R was purchased from Invitrogen Corporation, Carlsbad, Calif. U.S.A. (#PV3249). For each assay, test compounds were serially diluted, starting at 25 μM with 3 fold dilutions, in DMSO in 384 well plates then mixed with an appropriate kinase reaction buffer consisting of 50 mM Hepes, 5 mM MgCl2, 10 mM MnCl2, 0.1% BSA, pH 7.5, 1.0 mM dithiothreitol, 0.01% Tween 80 plus 1 μM ATP. Kinase protein and an appropriate biotinylated peptide substrate at 50 nM were added to give a final volume of 20 μL, reactions were incubated for 2 hours at room temperature and stopped by the addition of 10 μL of 45 mM EDTA, 50 mM Hepes pH 7.5. Added to the stopped reaction mix was 30 μL of PT66 Alphascreen beads (Perkin Elmer, Boston, Mass., U.S.A.). The reaction was incubated overnight and read on the Envision (Perkin Elmer). Phosphorylated peptide product was measured with the AlphaScreen system (Perkin Elmer) using acceptor beads coated with anti-phosphotyrosine antibody PT66 and donor beads coated with streptavidin that emit a fluorescent signal at the 520-620 nm emission wave length if in close proximity. The concentration of each compound for 50% inhibition (IC50) was calculated by non-linear regression using XL Fit data analysis software.
CSF-1R kinase was assayed in 50 mM Hepes pH 7.0, 5 mM MgCl2, 10 mM MnCl2, 1 mM DTT, 1 mg/mL BSA, 1.0 μM ATP, and 0.05 μM biotin-GGGGRPRAATF-NH2 (SEQ ID NO:1) peptide substrate. CSF-1R kinase was added at final concentration of 4 nM.

cKIT = molecular target: T2, cKIT (Homo sapiens, UniProt P10721); assay: cKIT kinase in vitro biochemical assay (alphascreen); details: tested at about 1 μM; read-out: CKIT percent inhibition
T2 construct: The kinase domain of cKIT was assayed in 50 mM Hepes; purchased Upstate 14-559
Procedure: (§1) The IC50 values for the inhibition of RTKs were determined in the alphascreen format measuring the inhibition by compound of phosphate transfer to a substrate by the respective enzyme. Briefly, the respective RTK domain purchased as human recombinant protein (cKIT Upstate #14-559, PDGFRb Invitrogen #P3082) were incubated with serial dilutions of compound in the presence of substrate and ATP concentrations within 3 times the Km of the enzyme.
(§2) The kinase domain of cKIT was assayed in 50 mM Hepes, pH=7.5, 5 mM MgCl2, 10 mM MnCl2, 1 mM DTT, 0.1% BSA with 0.06 uM biotinylated peptide substrate (GGLFDDPSYVNVQNL-NH2) and 15 uM ATP (ATP KM apparent=15 uM). The kinase domain of PDGFRβ was assayed in 50 mM Hepes, pH=7.5, 20 mM MgCl2, 1 mM DTT, 0.1% BSA with 0.1 uM biotinylated peptide substrate (GGLFDDPSYVNVQNL-NH2) and 10 uM ATP (ATP KM apparent=25 uM). Reactions were incubated at room temperature for 3 to 4 hr and stopped with buffer (20 mM EDTA, 0.01% Tween-20 for both PDGFRb and cKIT). Alphascreen PY20 beads were added to the stopped cKIT reactions and PY20 Ab/Protein A Alphascreen beads were added to the PDGFRβ stopped reactions. Both reactions were incubated overnight and read on the Alphascreen reader. The concentration of compound for 50% inhibition (IC50) was calculated employing non-linear regression using XL-Fit data analysis software. As a control compound, staurosporine is run in every assay and a Z′>0.5 is required to validate results.

PDGFRb = molecular target: T3, PDGFRb (Homo sapiens, UniProt P09619); assay: PDGFRb kinase in vitro biochemical assay (alphascreen); details: tested at about 1 μM; read-out: PDGF RK BETA percent inhibition
T3 construct: The kinase domain of PDGFRβ was assayed in 50 mM Hepes; purchased Invitrogen P3082
Procedure: as §1, §2

T3 sequence (P09619 600-962 limits assumed): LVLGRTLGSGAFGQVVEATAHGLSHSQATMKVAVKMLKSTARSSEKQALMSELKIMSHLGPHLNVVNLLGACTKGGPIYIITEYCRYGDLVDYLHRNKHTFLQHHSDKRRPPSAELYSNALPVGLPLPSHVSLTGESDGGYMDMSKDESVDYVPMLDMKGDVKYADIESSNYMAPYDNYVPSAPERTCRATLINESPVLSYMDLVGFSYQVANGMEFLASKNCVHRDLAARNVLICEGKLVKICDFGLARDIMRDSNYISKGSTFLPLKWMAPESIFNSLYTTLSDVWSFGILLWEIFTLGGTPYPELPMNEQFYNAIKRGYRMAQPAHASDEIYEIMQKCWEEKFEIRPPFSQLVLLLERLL
T2 sequence (P10721 589-937 limits assumed): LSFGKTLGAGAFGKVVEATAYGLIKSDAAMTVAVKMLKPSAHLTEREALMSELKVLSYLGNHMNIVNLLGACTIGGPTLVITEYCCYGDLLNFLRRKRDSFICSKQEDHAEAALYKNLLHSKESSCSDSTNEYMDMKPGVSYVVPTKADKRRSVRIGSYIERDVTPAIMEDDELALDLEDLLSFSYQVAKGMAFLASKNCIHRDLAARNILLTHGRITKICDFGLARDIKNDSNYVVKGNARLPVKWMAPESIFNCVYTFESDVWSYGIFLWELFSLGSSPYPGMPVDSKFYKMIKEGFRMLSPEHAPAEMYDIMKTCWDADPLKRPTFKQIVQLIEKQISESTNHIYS

Row | Structure (SMILES) | inhibition at 1 µM [1] | inhibition at 1 µM (cKIT) | inhibition at 1 µM (PDGFRb)
1 | CC(=O)NCCNc1nccc(Oc2ccc3nc(NCC4CCCCC4)sc3c2)n1 [Compound 16, N-(2-(4-(2-(cyclohexylmethylamino)benzo[d]thiazol-6-yloxy)pyrimidin-2-ylamino)ethyl) acetamide] | 89% | 22% | 35%
2 | O[C@@H]1CCCC[C@H]1Nc1nc2ccc(Oc3cncc(-c4ccc(N5CCOCC5)nc4)c3)cc2s1 [Compound 72, (1R,2R)-2-(6-(6′-morpholino-3,3′-bipyridin-5-yloxy)benzo[d]thiazol-2-ylamino)cyclohexanol] | 100% | 76% | 10%
3 | CNC(=O)c1ccc(Oc2ccc3nc(N[C@@H]4CCCC[C@H]4O)sc3c2)cn1 [Compound 54, 5-(2-((1R,2R)-2-hydroxycyclohexylamino)benzo[d]thiazol-6-yloxy)-N-methylpicolinamide] | 87% | 56% | 13%
4 | CC(=O)NCCNc1cc(Oc2ccc3nc(NCC4CCCCC4)sc3c2)ncn1 [Compound 12, N-(2-(6-(2-(cyclohexylmethylamino)benzo[d]thiazol-6-yloxy)pyrimidin-4-ylamino)ethyl) acetamide] | 80% | 13% | 37%
5 | CNC(=O)c1cncc(Oc2ccc3nc(N[C@@H]4CCCC[C@H]4O)sc3c2)n1 [Compound 52, 6-(2-((1R,2R)-2-hydroxycyclohexylamino)benzo[d]thiazol-6-yloxy)-N-methylpyrazine-2-carboxamide] | 78% | 33% | 12%
6 | C[C@H](Nc1nc2ccc(Oc3cncc(-n4cncn4)n3)cc2s1)C1CCCCC1 [Compound 40, (S)-6-(6-(1H-1,2,4-triazol-1-yl)pyrazin-2-yloxy)-N-(1-cyclobexylethyl)benzo[d]thiazol-2-amine] | 68% | 32% | 17%
7 | O[C@@H]1CCCC[C@H]1Nc1nc2ccc(Oc3cncc(-c4ccn[nH]4)c3)cc2s1 [Compound 78, (1R,2R)-2-(6-(5-(1H-pyrazol-5-yl)pyridin-3-yloxy)benzo [d]thiazol-2-ylamino)cyclohexanol] | 100% | 88% | 9%
8 | O[C@@H]1CCCC[C@H]1Nc1nc2ccc(Oc3cncc(-c4ccnc(N5CCOCC5)c4F)c3)cc2s1 [Compound 77] | 100% | 83% | 6%
9 | CCCn1cc(-c2cncc(Oc3ccc4nc(N[C@@H]5CCCC[C@H]5O)sc4c3)c2)cn1 [Compound 58, (1R,2R)-2-(6-(5-(1-propyl-1H-pyrazol-4-yl)pyridin-3-yloxy)benzo[d]thiazol-2-ylamino)cyclohexanol] | 100% | 86% | 7%
10 | O[C@@H]1CCCC[C@H]1Nc1nc2ccc(Oc3cc(-n4cncn4)ncn3)cc2s1 [Compound 43, (1R,2R)-2-(6-(6-(1H-1,2,4-triazol-1-yl)pyrimidin-4-yloxy)benzo[d]thiazol-2-ylamino)cyclohexanol] | 57% | 15% | 14%
11 | C[C@H](Nc1nc2ccc(Oc3ccnc(Cl)n3)cc2s1)C1CCCCC1 [Compound 36, (S)-6-(2-chloropyrimidin-4-yloxy)-N-(1-cyclohexylethyl)benzo[d]thiazol-2-amine] | 59% | 19% | 0%

The remaining lines, values ahead:

Row | inhibition at 1 µM [1] | inhibition at 1 µM (cKIT) | inhibition at 1 µM (PDGFRb) | Structure (SMILES)
12 | 39% | 19% | 1% | N#Cc1ccc(Oc2ccc3nc(NCC4CCCCC4)sc3c2)cn1 [Compound 86, 5-(2-(cyclohexylmethylamino)benzo [d]thiazol-6-yloxy) picolinonitrile]
13 | 32% | 16% | 0% | C[C@H](Nc1nc2ccc(Oc3ccc(C#N)nc3)cc2s1)C1CCCCC1 [Compound 87, (S)-5-(2-(1-cyclohexylethylamino)benzo[d]thiazol-6-yloxy)picolinonitrile]
14 | 86% | 15% | 15% | Nc1ccc(-c2cc(Oc3ccc4nc(N[C@@H]5CCCC[C@H]5O)sc4c3)cnc2Cl)cn1 [Compound 104, (1R,2R)-2-(6-(6′-amino-2-chloro-3,3′-bipyridin-5-yloxy)benzo[d]thiazol-2-ylamino)cyclohexanol]
15 | 75% | 46% | 9% | Nc1ccc(Oc2ccc3nc(NCC4CCCCC4)sc3c2)nn1 [Compound 89, 6-(6-aminopyridazin-3-yloxy)-N-(cyclohexylmethyl)benzo[d]thiazol-2-amine]
16 | 83% | 27% | 21% | O[C@@H]1CCCC[C@H]1Nc1nc2ccc(Oc3cnc(Cl)c(Br)c3)cc2s1 [Compound 99, (1R,2R)-2-(6-(5-bromo-6-chloropyridin-3-yloxy)benzo[d]thiazol-2-ylamino)cyclohexanol]
17 | 48% | 11% | 16% | O[C@@H]1CCCC[C@H]1Nc1nc2ccc(Oc3cnc(-c4cccnc4)c(-c4cccnc4)c3)cc2s1 [Compound 109, (1R,2R)-2-(6-(5,6-bis(pyridin-3-yl)pyridin-3-yloxy)benzo[d]thiazol-2-ylamino)cyclohexanol]
18 | 100% | 90% | 31% | C[C@H](Nc1nc2ccc(Oc3ccc(N)nc3)cc2s1)C1CCCCC1 [Compound 100, (S)-6-(6-aminopyridin-3-yloxy)-N-(1-cyclohexylethyl)benzo[d]thiazol-2-amine]
19 | 86% | 11% | 7% | Cn1cc(-c2cc(Oc3ccc4nc(N[C@@H]5CCCC[C@H]5O)sc4c3)cnc2Cl)cn1 [Compound 102, (1R,2R)-2-(6-(6-chloro-5-(1-methyl-1H-pyrazol-4-yl)pyridin-3-yloxy)benzo[d]thiazol-2-ylamino)cyclohexanol]
20 | 81% | 13% | 18% | Cn1cc(-c2cc(Oc3ccc4nc(N[C@@H]5CCCC[C@H]5O)sc4c3)cnc2-c2cnn(C)c2)cn1 [Compound 106, (1R,2R)-2-(6-(5,6-bis(1-methyl-1H-pyrazol-4-yl)pyridin-3-yloxy)benzo[d]thiazol-2-ylamino) cyclohexanol]
21 | 95% | 21% | 14% | Cn1nccc1-c1cncc(Oc2ccc3nc(N[C@@H]4CCCC[C@H]4O)sc3c2)n1 [Compound 91, (1R,2R)-2-(6-(6-(1-methyl-1H-pyrazol-5-yl)pyrazin-2-yloxy)benzo[d]thiazol-2-ylamino) cyclohexanol]
